Results published in patent publication US20230257715A1, “COMPOSITIONS AND METHODS FOR REGULATING ENTEROENDOCRINE CELL DIFFERENTIATION AND USES THEREOF” (The Children's Medical Center Corporation, priority 2020, published 2023).
“Also recorded” adds a separate entry of the source.

What was measured:
human duodenal enteroids [1] = test: qPCR analysis of enteroendocrine and lineage markers in enteroids; format: cell-based
From the text: For differentiation, enteroids were passaged and grown in GM for two days, to allow for ISC expansion, after which the organoids were transitioned to tissue-specific differentiation media (DM) with additional small molecules added as described (TABLE 1A and TABLE 1B). Media was changed every two days, with Tubastatin A being removed after the second day of differentiation. Enteroids and rectoids were taken for analysis after 14 days.
Total RNA was purified from individual wells using TRI®Reagent (Sigma) and the Direct-zol™ RNA kit (Zymo Research), following the manufacturer's protocol. RNA concentration was determined using a NanoDrop™ 1000 spectrophotometer (Life Technologies). RNA was treated with DNAse (Promega) and reverse transcribed using the High-Capacity cDNA Reverse Transcription Kit (Life Technologies). Gene expression analysis was then performed by Real Time quantitative PCR (qPCR) using a QuantStudio 6 Flex thermocycler (Life Technologies). Taqman primers from Life Technologies (TABLE 3) were used. 18S transcripts were used as the internal control and data were expressed using the 2^−ddCt method with Ct limit of 40. Fold change, unless otherwise stated, was compared to total RNA derived from adult whole mucosal tissue biopsies.

human duodenal enteroids [2] = test: Single cell RNA sequencing of enteroids (cell type proportions, module score, scVelo trajectory); format: cell-based
Protocol: To better assess the transcriptomic distinctions between cells from the various culture conditions, single cell RNA sequencing (scRNA-seq) on the 10× platform combined with sample hashing was utilized, allowing the assessment of the reproducibility of the findings from distinct donors. Enteroids from three individuals were grown in G2D12, RSP or AS, for a total of nine samples. After the 14-day protocol, enteroids were isolated and processed into a single-cell suspension and their condition and patient source were marked using Hashtag antibodies prior to pooling the samples together (Stoeckius, M. et al. Genome Biol 19, 224, doi:10.1186/s13059-018-1603-1 (2018).)^47. After labeling, cells were processed, and single-cell transcriptomes were generated.
Enteroids were incubated in Cell Recovery solution for 40-60 minutes at 4° C. to remove the Matrigel® and then centrifuged at 500×g for 5 minutes at 4° C. To achieve single cell suspension, organoids were then incubated in 500 μL of TrypLE™ Express at 37° C. for 30 minutes and broken up by repeated pipetting using a bent P1000 pipette tip. Each sample was then diluted in 800 μL of 20% FBS in Advanced DMEM/F12, filtered through 37 μm mesh, and then centrifuged at 300×g for 10 minutes at 4° C. Dead cells were then removed using magnetic-activated cell sorting (MACS) separation following the manufacturer's protocol. Briefly, each sample was resuspended in 100 μL Dead Cell Removal MicroBeads (Miltenyi Biotec) and incubated at room temperature for 15 minutes. 400 μL of 1×Binding Buffer was then added to each sample, after which the samples were applied to prepared MACS columns placed in a MACS Separator. Flow-through containing live cells was collected. This was followed by washing the columns four times with 1× Binding Buffer, which were combined with the initial flow-through. These samples were then centrifuged at 800×g for 5 minutes at 4° C.
Single cells isolated after dead cell removal (see, Example 18) were labeled prior to sequencing with Totalseq™-B hashtag antibodies (Biolegend), targeted against CD298 and β2-microglobulin, per the manufacturer's protocol^47. Briefly, each of the nine samples (three separate differentiation conditions in three enteroid lines) were resuspended in 50 μL of Cell Staining Buffer (Biolegend) and blocked with […] of Human TruStain FcX^TM blocking reagent (Biolegend) for 10 minutes at 4° C. The supernatant was then removed, and each sample resuspended in 50 μL of Cell Staining Buffer containing […] of a unique Totalseq™-B hashtag antibody. Samples were incubated for 30 minutes at 4° C. and then washed three times in 3.5 mL of Cell Staining Buffer. The samples were then filtered through a 37 μm mesh, resuspended in 2% BSA in PBS at a concentration of 1500 cells/μL, and then pooled together. Of note, prior to the scRNA-seq experiment, antibody binding was verified using fluorophore-conjugated antibodies with the same binding specificity.
A total of 180,000 cells as one pool were inputted across four channels, with a recovery rate of approximately 30,000 cells across all four channels. RNA libraries were prepared from single cells by the Single Cell Core at Harvard Medical School, Boston, Mass., using the 10× Chromium Single Cell 3′ Library Chip (V3.1) with dual indexed barcodes. Briefly, single cells were partitioned into Gel Beads in Emulsion (GEMs) by the Chromium Controller. […]

[3] = three enteroid lines, 14-day protocol

CCn1cc(C(=O)O)c(=O)c2c(N)c(F)c(NC3CCCCC3)cc21 [AS, AS1842856] was tested, and the “expression of the enterocyte marker ALP1 (qPCR)” value (human duodenal enteroids [1]; compared to G14 and G2D12) was “reduced expression”, the “other intestinal lineage marker mRNA expression (qPCR)” value (human duodenal enteroids [1]; compared to G14 and G2D12) was “increased expression of other secretory and ISC markers, including ATOH1, MUC2, LYZ, and LGR5” and the “EE marker mRNA expression (qPCR)” value (human duodenal enteroids [1]; compared to G14 and G2D12, referenced to whole mucosa, normalized to 18S) was “induced similar mRNA expression trends as Rim and SP (RSP); also recorded: upregulation of multiple EE markers (CHGA, PAX4, PDX1, NEUROD1, NEUROG3, SST and GIP), many to levels approximating whole mucosa”. The “EE marker mRNA expression, direct comparison of protocols (qPCR)” value (human duodenal enteroids [1]; compared to RSP / AS alone, FIG. 5.1A and 5A) was “higher expression of CHGA, NEUROD1, NEUROG3, and SST”, the “MUC2, ALP1 and LGR5 mRNA expression compared to those that received RSP alone” value (human duodenal enteroids [1]; qPCR, FIG. 7.1A) was “decreased expression of MUC2 and ALP1 and increased expression of LGR5” and the “EE Cell Gene Module Score, effect size between culture conditions (Cohen's d)” value (human duodenal enteroids [2]; reference gene set from mouse EE cells) was “larger effect size than RSP”. The “proportion of EE cells (scRNA-seq)” value (human duodenal enteroids [2]; [3]) was 18%, the “proportion of enterocytes (scRNA-seq)” value (human duodenal enteroids [2]; [3]) was 2.5% and the “proportion of goblet cells (scRNA-seq)” value (human duodenal enteroids [2]; [3]) was 1.5%. The “proportion of stem cells (scRNA-seq)” value (human duodenal enteroids [2]; [3]) was 42% and the “differentiation trajectory (scVelo RNA velocity)” value (human duodenal enteroids [2]; vector field on UMAP) was “the majority of vectors moving towards the goblet cell cluster and then into the EE cluster”.
